Test results as given in publication PMC8956723, “Secretory quality control constrains functional selection-associated protein structure innovation” (Communications Biology, 2022).

Columns and labels:
Assay in all cases: ELISA, CRP binding to immobilised PC-KLH
Conditions in all cases: PC presented as immobilised KLH conjugate, not free ligand; 2 mM CaCl2, TBS pH 7.4; calcium-dependent
rat CRP = target: T1, rat CRP (Rattus norvegicus, UniProt P48199)
T1 construct: signal peptide replaced by alpha-factor signal, N-terminal 6xHis tag kept; secreted from Pichia pastoris GS115; homopentamer
T1 sequence (P48199 20-230): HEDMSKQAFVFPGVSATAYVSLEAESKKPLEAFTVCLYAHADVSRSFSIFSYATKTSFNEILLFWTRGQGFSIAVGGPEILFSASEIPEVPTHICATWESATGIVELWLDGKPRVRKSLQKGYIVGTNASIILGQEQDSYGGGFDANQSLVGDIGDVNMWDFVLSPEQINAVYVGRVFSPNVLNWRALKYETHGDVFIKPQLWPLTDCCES

human CRP = target: T2, human CRP (Homo sapiens, UniProt P02741)
T2 sequence (P02741 19-224): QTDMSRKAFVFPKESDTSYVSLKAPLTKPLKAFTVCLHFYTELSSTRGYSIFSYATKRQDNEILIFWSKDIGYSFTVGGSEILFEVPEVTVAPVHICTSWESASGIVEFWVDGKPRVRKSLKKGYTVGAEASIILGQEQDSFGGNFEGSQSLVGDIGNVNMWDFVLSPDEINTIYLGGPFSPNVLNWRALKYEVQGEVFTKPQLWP

mouse CRP = target: T3, mouse CRP (Mus musculus, UniProt P14847)
T3 construct: signal peptide replaced by alpha-factor signal, N-terminal 6xHis tag kept; secreted from Pichia pastoris GS115; homopentamer
T3 sequence (P14847 20-225): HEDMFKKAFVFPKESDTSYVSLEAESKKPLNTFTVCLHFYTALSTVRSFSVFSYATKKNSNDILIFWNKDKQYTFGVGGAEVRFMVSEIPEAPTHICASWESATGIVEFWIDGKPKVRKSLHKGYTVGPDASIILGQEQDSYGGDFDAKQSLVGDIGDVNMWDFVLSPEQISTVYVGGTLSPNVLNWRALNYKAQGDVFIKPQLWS

**Q.** Which “ELISA, CRP binding to immobilised PC-KLH” value (rat CRP) does the source give for C[N+](C)(C)CCOP(=O)([O-])O [phosphorylcholine] here?
**A.** mouse, rat, and human CRP also showed a comparable capacity to bind PC

**Q.** And the “ELISA, CRP binding to immobilised PC-KLH” value (human CRP)?
**A.** mouse, rat, and human CRP also showed a comparable capacity to bind PC

**Q.** And the “ELISA, CRP binding to immobilised PC-KLH” value (mouse CRP)?
**A.** mouse, rat, and human CRP also showed a comparable capacity to bind PC
